The values that follow are results of earlier work, collected in US7198802B2, “Tablet obtained by direct compression comprising 4-amino-1-hydroxybutylidene-1,1-bisphosphonic acid as active ingredient” (Zentiva A.S., priority 2000, dated 2007).

The conditions of this data set: atmospheric relative humidity.

In the case of `OC[C@H]1O[C@@H](O[C@H]2[C@H](O)[C@@H](O)C(O)O[C@@H]2CO)[C@H](O)[C@@H](O)[C@H]1O` (some centres unmarked) [Lactose], the “relative humidity at which moisture / water content rises” value was “above 90%”.
For the compound `OC[C@@H](O)[C@@H](O)[C@H](O)[C@H](O)CO` [mannitol, Mannitol], the “relative humidity at which moisture / water content rises” value is reported as “about 98%”.
